Assay results as given in patent US20230117034A1, “PYRAZOLOTRIAZINES” (Bayer Aktiengesellschaft, priority 2019, published 2023).

How the values were obtained:
CDK9/CycT1 = target: T1, CDK9/CycT1 (Homo sapiens, UniProt P50750); assay: CDK9/CycT1 high ATP kinase assay (TR-FRET, 2 mM ATP); assay type: biochemical; details: 2 mM ATP (high ATP); median; read-out: CDK9/CyclinT1, 2 mM ATP (high ATP), IC50 (median)
T1 construct: Recombinant full-length His-tagged human CDK9 and CycT1; purchased Life Technologies PV4131; host or cells: insect cells
T1 sequence (P50750 whole entry): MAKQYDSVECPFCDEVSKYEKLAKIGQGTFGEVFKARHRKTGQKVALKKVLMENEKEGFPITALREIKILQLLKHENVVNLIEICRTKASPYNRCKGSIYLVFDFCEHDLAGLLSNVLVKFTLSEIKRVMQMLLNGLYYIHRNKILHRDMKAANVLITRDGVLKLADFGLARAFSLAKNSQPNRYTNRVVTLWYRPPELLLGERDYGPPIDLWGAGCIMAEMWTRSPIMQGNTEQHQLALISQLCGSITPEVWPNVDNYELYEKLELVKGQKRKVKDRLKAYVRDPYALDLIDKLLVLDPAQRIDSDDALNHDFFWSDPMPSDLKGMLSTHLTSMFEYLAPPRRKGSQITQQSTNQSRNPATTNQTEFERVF
T1 sequence (O60563 whole entry partner): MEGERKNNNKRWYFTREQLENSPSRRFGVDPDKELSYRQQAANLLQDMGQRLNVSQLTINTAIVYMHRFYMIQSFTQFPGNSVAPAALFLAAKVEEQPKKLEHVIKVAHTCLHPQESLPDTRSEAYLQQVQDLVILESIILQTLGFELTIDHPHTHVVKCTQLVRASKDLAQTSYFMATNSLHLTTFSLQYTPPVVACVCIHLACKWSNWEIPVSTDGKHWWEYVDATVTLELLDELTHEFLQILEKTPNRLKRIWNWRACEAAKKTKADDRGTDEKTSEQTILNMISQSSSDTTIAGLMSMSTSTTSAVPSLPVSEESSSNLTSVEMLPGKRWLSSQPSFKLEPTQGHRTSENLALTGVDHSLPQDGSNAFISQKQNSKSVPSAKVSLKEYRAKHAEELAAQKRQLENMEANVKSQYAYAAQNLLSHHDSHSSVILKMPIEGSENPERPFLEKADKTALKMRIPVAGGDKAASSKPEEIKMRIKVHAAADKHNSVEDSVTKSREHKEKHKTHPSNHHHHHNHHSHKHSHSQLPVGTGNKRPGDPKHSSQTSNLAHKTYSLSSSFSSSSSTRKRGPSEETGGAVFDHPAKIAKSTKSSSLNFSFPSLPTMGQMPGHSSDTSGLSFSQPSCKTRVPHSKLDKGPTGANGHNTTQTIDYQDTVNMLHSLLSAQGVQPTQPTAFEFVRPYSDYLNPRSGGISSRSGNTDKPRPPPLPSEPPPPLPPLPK
Outline: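 Full-length His-tagged human CDK9/CycT1 (insect cell, ~0.5 μg/mL) preincubated 15 min at 22 °C with compound in Tris pH 8.0, MgCl2, DTT buffer before reaction with biotinylated peptide substrate at high ATP (2 mM).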

[1] = system: BRCA1 mRNA expression in MDA-MB-231 cells; assay: qRT-PCR assay: BRCA1 mRNA expression in MDA-MB-231; assay type: cell-based, human; details: Homo sapiens, MDA-MB-231, Inhibition of BRCA1 mRNA expression in MDA-MB-231 cells; median; read-out: RTqPCR-MDA-MB-231, IC50, BRCA1 (median)
Outline: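 MDA-MB-231 cells, 200,000/well, treated 24 h after plating with continuous 24 h compound exposure. RNA extracted, 600 ng reverse-transcribed, BRCA1 measured by RT-qPCR normalized to GAPDH.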

CDK2/CycE = target: T2, CDK2/CycE (Homo sapiens, UniProt P24941); assay: CDK2/CycE kinase assay (TR-FRET, 2 mM ATP); assay type: biochemical; details: 2 mM ATP (high ATP); median; read-out: CDK2/CyclinE, 2 mM ATP (high ATP), IC50 (median)
T2 construct: purchased ProQinase GmbH (Freiburg, Germany); host or cells: insect cells (Sf9)
Outline: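 GST-tagged human CDK2 and CycE from Sf9 cells, about 10 ng/ml, pre-incubated 15 min at 22 °C with compound in Tris/HCl pH 8.0 buffer. Reaction with 2 mM ATP and 0.75 µM biotinylated peptide for 25 min at 22 °C. Phospho-RB antibody TR-FRET (665/620 nm ratio) read after 1 h; data normalised to no-inhibitor and no-enzyme controls.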

| Compound | IC50 (CDK9/CycT1) [nM] | IC50 [1] [nM] | IC50 (CDK2/CycE) [nM] |
| --- | --- | --- | --- |
| CC1(C)CN(c2nc(NCc3nc4ccccc4[nH]3)n3ncc(C4CC4)c3n2)CCO1 [Example 123, N-[(1H-benzimidazol-2-yl)methyl]-8-cyclopropyl-2-(2,2-dimethylmorpholin-4-yl)pyrazolo[1,5-a][1,3,5]triazin-4-amine] | > 20000 | 71.2 | > 20000 |
| Brc1cnn2c(NCc3nnc(-c4ccccc4)[nH]3)nc(N3C[C@@H]4C[C@H]3CO4)nc12 [Example 120, 8-bromo-2-[(1S,4S)-2-oxa-5-azabicyclo[2.2.1]heptan-5-yl]-N-[(5-phenyl-4H-1,2,4-triazol-3-yl)methyl]pyrazolo[1,5-a][1,3,5]triazin-4-amine] | 10400 | 30 | 15400 |
| CC(C)c1cnn2c(NCc3nc4ccccc4[nH]3)nc(N3CCOC[C@@H]3C)nc12 [Example 6, N-[(1H-benzimidazol-2-yl)methyl]-2-[(3S)-3-methylmorpholin-4-yl]-8-(propan-2-yl)pyrazolo[1,5-a][1,3,5]triazin-4-amine] | > 16100 | 5.43 | 2010 |
| OCC1CCN1c1nc(NCc2nc3ccccc3[nH]2)n2ncc(Br)c2n1 (stereo not drawn) [Example 147, [1-[4-(1H-benzimidazol-2-ylmethylamino)-8-bromo-pyrazolo[1,5-a][1,3,5]triazin-2-yl]azetidin-2-yl]methanol] | > 20000 | 76.7 | 3120 |
| NCCc1cccc2[nH]c(CNc3nc(N4CCOCC4)nc4c(Br)cnn34)nc12 [Example 112, N-{[7-(2-aminoethyl)-1H-benzimidazol-2-yl]methyl}-8-bromo-2-(morpholin-4-yl)pyrazolo[1,5-a][1,3,5]triazin-4-amine] | > 20000 | 23.7 | 4340 |
| C[C@H]1CCCCN1c1nc(NCc2nc3ccccc3[nH]2)n2ncc(Br)c2n1 [Example 141, N-[(1H-benzimidazol-2-yl)methyl]-8-bromo-2-[(2S)-2-methylpiperidin-1-yl]pyrazolo[1,5-a][1,3,5]triazin-4-amine] | 12900 | 16.4 | 707 |
| C[C@@H]1CN(c2nc(NCc3nnc(-c4ccccc4)[nH]3)n3ncc(Br)c3n2)C[C@H](C)N1 [Example 127, 8-bromo-2-[(3R,5S)-3,5-dimethylpiperazin-1-yl]-N-[(5-phenyl-4H-1,2,4-triazol-3-yl)methyl]pyrazolo[1,5-a][1,3,5]triazin-4-amine] | 6320 | 16.2 | > 20000 |
| CN1CCN(c2nc(NCc3nc4c(F)cccc4[nH]3)n3ncc(C4CC4)c3n2)CC1 [Example 165, 8-cyclopropyl-N-[(4-fluoro-1H-benzimidazol-2-yl)methyl]-2-(4-methylpiperazin-1-yl)pyrazolo[1,5-a][1,3,5]triazin-4-amine] | > 20000 | 2.35 | > 20000 |
| Cc1ccc2[nH]c(CNc3nc(N4CCN(C)CC4)nc4c(Br)cnn34)nc2c1 [Example 158, 8-bromo-N-[(5-methyl-1H-benzimidazol-2-yl)methyl]-2-(4-methylpiperazin-1-yl)pyrazolo[1,5-a][1,3,5]triazin-4-amine] | > 20000 | 0.883 | 5300 |
| Brc1cnn2c(NCc3nc4ccccc4[nH]3)nc(N3CCOCC3C3CC3)nc12 (stereo not drawn) [Example 117, N-(1H-benzimidazol-2-ylmethyl)-8-bromo-2-(3-cyclopropylmorpholin-4-yl)pyrazolo[1,5-a][1,3,5]triazin-4-amine] | > 20000 | 121 | 4660 |
| Fc1cccc(-c2nnc(CNc3nc(N4C[C@H]5C[C@@H]4CO5)nc4c(Br)cnn34)[nH]2)c1 [Example 153, 8-bromo-N-{[5-(3-fluorophenyl)-4H-1,2,4-triazol-3-yl]methyl}-2-[(1R,4R)-2-oxa-5-azabicyclo[2.2.1]heptan-5-yl]pyrazolo[1,5-a][1,3,5]triazin-4-amine] | 1230 | 8.2 | 1700 |
| Brc1cnn2c(NCc3nnc(-c4ccccc4)[nH]3)nc(N3CCNCC3)nc12.O=CO [Example 119, 8-bromo-N-[(5-phenyl-4H-1,2,4-triazol-3-yl)methyl]-2-piperazin-1-yl-pyrazolo[1,5-a][1,3,5]triazin-4-amine formate] | 6210 | 21.3 | 7770 |
| c1ccc2[nH]c(CNc3nc(N4CCOCC4)nc4c(-c5ccncc5)cnn34)nc2c1 [Example 111, N-[(1H-benzimidazol-2-yl)methyl]-2-(morpholin-4-yl)-8-(pyridin-4-yl)pyrazolo[1,5-a][1,3,5]triazin-4-amine hydrogen chloride (1/1)] | > 1630 | 15.3 | > 20000 |
| Brc1cnn2c(NCc3nc4ccccc4[nH]3)nc(N3C[C@@H]4CCCN[C@@H]4C3)nc12 [Example 146, N-[(1H-benzimidazol-2-yl)methyl]-8-bromo-2-[(4aS,7aS)-octahydro-6H-pyrrolo[3,4-b]pyridin-6-yl]pyrazolo[1,5-a][1,3,5]triazin-4-amine] | > 20000 | 16.1 | 7110 |
| Brc1cnn2c(NCc3nc4ccccc4[nH]3)nc(N3CCN4CCC[C@H]4C3)nc12 [Example 148, N-[(1H-benzimidazol-2-yl)methyl]-8-bromo-2-[(8aS)-hexahydropyrrolo[1,2-a]pyrazin-2 (1 H)-yl]pyrazolo[1,5-a][1,3,5]triazin-4-amine] | > 20000 | 87.6 | 12600 |
| CC1(C)CN(c2nc(NCc3nnc(-c4ccccc4)[nH]3)n3ncc(C4CC4)c3n2)CCO1 [Example 94, 8-cyclopropyl-2-(2,2-dimethylmorpholin-4-yl)-N-[(5-phenyl-4H-1,2,4-triazol-3-yl)methyl]pyrazolo[1,5-a][1,3,5]triazin-4-amine] | 12800 | 222 | > 20000 |
| Fc1ccccc1-c1cnn2c(NCc3nc4ccccc4[nH]3)nc(N3CCOCC3)nc12 [Example 95, N-[(1H-benzimidazol-2-yl)methyl]-8-(2-fluorophenyl)-2-(morpholin-4-yl)pyrazolo[1,5-a][1,3,5]triazin-4-amine] | > 20000 | 147 | > 20000 |
